{"source": "patent US20230331655A1", "about": "“HYDROXYN[…] AND METHODS OF USE THEREOF” (UNIVERSITY OF MARYLAND, BALTIMORE, priority 2020, published 2023)", "key": {"[1]": {"tested_on": "Male C57BL/6J mice", "test": "naloxone-precipitated morphine withdrawal symptoms", "assay_type": "in vivo, mouse", "conditions": "10 mg/kg i.p. 10 min before naloxone 1 mg/kg", "text": "(§1) Animals: Male C57BL/6J mice (8 weeks old, Jackson laboratories) were kept in a temperature and humidity-controlled environment and maintained in a 12:12 hr light/dark cycle (lights on at 7:00 AM). Mice were singly-housed for all the studies due to increased aggression following opioid administration and were randomly assigned to treatment groups.\n(§2) Drugs: (2R,6R)-HNK hydrochloride was synthesized and characterized. Absolute and relative stereochemistry for (2R,6R)-HNK was confirmed by small molecule x-ray crystallography. For the intraperitoneal injections, drugs were dissolved in 0.9% saline and given in a volume of 5 ml/kg.\nPrecipitated morphine withdrawal symptoms: Mice were given a single injection of saline or morphine (10 mg/kg) in their home cages for 4 days. On Day 5, 1 hr and 50 min after their last saline or morphine injection, mice were given a single injection of saline or (2R,6R)-HNK (10 mg/kg) and 10 min later were given another injection of either saline or the opioid receptor antagonist naloxone (1 mg/kg, i.p.). The mice were immediately placed in plexiglass cylinders and their behaviors were monitored and live-scored for 25 min by an experimenter blind to any treatment conditions. Behaviors that were scored included: number of jumps (escape behavior), number of paw tremors, and occurrence (1 point) or not in each 5-min interval for the following symptoms: stereotypic sniffing, stereotypic rearing, eye ptosis, piloerection, head nodding and swallowing (FIGS. 9A-9H). An average score for each animal was given after analyzing all the withdrawal symptoms (FIG. 10)."}, "[2]": {"tested_on": "Male C57BL/6J mice", "test": "sub-effective dose morphine conditioned-place preference after chronic social defeat stress", "assay_type": "in vivo, mouse", "conditions": "single 10 mg/kg i.p. before conditioning, morphine 0.25 mg/kg", "text": "as §1, §2\nSocial defeats: Socially defeated mice underwent a 10-day chronic social defeat stress paradigm. […]\nSocial interaction test: Following the social defeats, on day 11, test mice were screened for susceptibility in a social interaction/avoidance choice test. […] The time spent interacting (nose within close proximity of the cage) with the “stranger” mouse versus the empty cage was analyzed using TopScan video tracking software (CleverSys, Reston, Virginia). […]\nSucrose preference: Following the social interaction test, mice were assessed for sucrose preference in their home cages. […] Sucrose preference was measured (day 12) and were assigned to two groups: resilient (sucrose preference >70%) and susceptible (sucrose preference <55%). […]"}, "[3]": {"tested_on": "mice", "test": "overt adverse effects after oral administration", "assay_type": "in vivo, mouse"}, "[4]": {"tested_on": "Male C57BL/6J mice", "test": "naloxone-precipitated morphine withdrawal conditioned-place aversion", "assay_type": "in vivo, mouse", "conditions": "10 mg/kg i.p. 10 min before naloxone 1 mg/kg; morphine 10 mg/kg", "text": "as §1, §2\nPrecipitated morphine place aversion: The conditioned-place aversion (CPA) protocol was performed in a rectangular three-chambered box (40 cm length×30 cm width×35 cm height; Stoelting Co., Wood Dale, IL, USA) comprised of two equal sized end-chambers (20 cm×18 cm×35 cm) and a central chamber (20 cm×10 cm×35 cm). […] The CPA protocol consisted of a pre-conditioning phase, four saline/morphine administration days in their home cages, a conditioning phase following morphine precipitated withdrawal in the CPA apparatus and a post-conditioning test. […] Time spent in each compartment was measured during both pre- and post-conditioning sessions using TopScan v2.0 (CleverSys, Inc, VA, USA)."}, "[5]": {"test": "oral bioavailability in mice", "conditions": "mouse, in vivo"}, "[6]": {"conditions": "10 mg/kg, i.p.; cited from earlier work"}}, "note": "Entries after “also recorded” stand apart in the source; their conditions may differ."}
{"smiles": "N[C@@]1(c2ccccc2Cl)CCC[C@@H](O)C1=O", "note": "[(2R,6R)-HNK, (2R,6R)-hydroxynorketamine]", "values": [{"measurement": "average precipitated withdrawal symptoms of morphine", "setting": "[1]", "value": "overall reduction"}, {"measurement": "escape-related jumping behavior", "setting": "[1]", "value": "increasing the escape-related jumping behavior"}, {"measurement": "paw tremors", "setting": "[1]", "value": "decreased paw tremors"}, {"measurement": "somatic symptoms following naloxone-precipitated morphine withdrawal", "setting": "[1]", "value": "decreases somatic symptoms"}, {"measurement": "morphine-induced place preference (conditioning to sub-effective dose of morphine)", "setting": "[2]; stress susceptible mice", "value": "prevents conditioning; also recorded: prevented morphine-induced place preference"}, {"measurement": "morphine-induced place preference (conditioning to sub-effective dose of morphine)", "setting": "[2]; stress-resilient mice", "value": "no significant effect"}, {"measurement": "fold higher than doses required for antidepressant-relevant effects (dose without overt adverse effects)", "setting": "[3]", "value": "at least 9 fold"}, {"measurement": "oral doses without overt adverse effects", "setting": "[3]", "value": "up to 450 mg/kg"}, {"measurement": "naloxone-induced conditioned-place aversion in morphine-dependent mice", "setting": "[4]", "value": "prevents conditioned-place aversion; also recorded: completely prevented"}, {"measurement": "bioavailability", "setting": "[5]", "value": "~50", "unit": "%"}, {"measurement": "estimated concentration in brain tissue", "setting": "[6]", "value": "< 20", "unit": "µmol/kg"}, {"measurement": "estimated concentration in the extracellular hippocampal space", "setting": "[6]", "value": "< 10", "unit": "µM"}]}
